Measured values reported in patent US20100041089A1, “IMPROVED METHOD FOR DETECTING CHEMICAL […]” (priority 2006, published 2010).

Test system: yeast genes (expressed mRNA)
Assay: DNA chip measurement of expressed mRNA of yeast genes after culture with a toxic chemical substance
Format: cell-based, Saccharomyces cerevisiae S288C
How it was run: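 Yeast S288C, YPD 25° C; toxicant at log phase, 2 h, sublethal growth-inhibiting conc.; no-chemical control. Hot SDS/acetate RNA extraction, oligo-dT mRNA, Cy3/Cy5-dUTP RT. Whole-genome chip, 65° C >12 h. Readout: treated/control intensity ratio, ≥2 significant.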

## COc1cc(CNC(=O)CCCCC=CC(C)C)ccc1O [(12), 8-Methyl-N-vanillyl-6-nonenamide]
Yeast gene YAL012W, metabolism protein genes
  The level of expressed mRNA in the presence of chemical substance/The level of expressed mRNA in the absence of chemical substance: 1.1
Yeast gene YAL034C, cultured two hours with substance
  The level of expressed mRNA in the presence of chemical substance/The level of expressed mRNA in the absence of chemical substance: 2.8
Yeast gene YAL053W, cultured two hours with substance
  The level of expressed mRNA in the presence of chemical substance/The level of expressed mRNA in the absence of chemical substance: 0.6
Yeast gene YAL054C
  The level of expressed mRNA in the presence of chemical substance/The level of expressed mRNA in the absence of chemical substance: 1.0
Yeast gene YAR028W, cultured two hours with substance
  The level of expressed mRNA in the presence of chemical substance/The level of expressed mRNA in the absence of chemical substance: 0.8
Yeast gene YBL001C
  The level of expressed mRNA in the presence of chemical substance/The level of expressed mRNA in the absence of chemical substance: 0.7
Yeast gene YBL048W, cultured two hours with substance
  The level of expressed mRNA in the presence of chemical substance/The level of expressed mRNA in the absence of chemical substance: 1.2
Yeast gene YBL107C, cultured two hours with substance
  The level of expressed mRNA in the presence of chemical substance/The level of expressed mRNA in the absence of chemical substance: 1.4
Yeast gene YBR072W (stress protein genes)
  The level of expressed mRNA in the presence of chemical substance/The level of expressed mRNA in the absence of chemical substance: 16.3
Yeast gene YBR203W, cultured two hours with substance
  The level of expressed mRNA in the presence of chemical substance/The level of expressed mRNA in the absence of chemical substance: 1.6
Yeast gene YBR222C
  The level of expressed mRNA in the presence of chemical substance/The level of expressed mRNA in the absence of chemical substance: 0.9
Yeast gene YBR256C
  The level of expressed mRNA in the presence of chemical substance/The level of expressed mRNA in the absence of chemical substance: 1.7
Yeast gene YBR273C, cultured two hours with substance
  The level of expressed mRNA in the presence of chemical substance/The level of expressed mRNA in the absence of chemical substance: 0.8
Yeast gene YCL009C
  The level of expressed mRNA in the presence of chemical substance/The level of expressed mRNA in the absence of chemical substance: 1.7
Yeast gene YCR037C
  The level of expressed mRNA in the presence of chemical substance/The level of expressed mRNA in the absence of chemical substance: 0.7
Yeast gene YCR048W
  The level of expressed mRNA in the presence of chemical substance/The level of expressed mRNA in the absence of chemical substance: 0.9
Yeast gene YDL072C, cultured two hours with substance
  The level of expressed mRNA in the presence of chemical substance/The level of expressed mRNA in the absence of chemical substance: 1.2
Yeast gene YDL110C, cultured two hours with substance
  The level of expressed mRNA in the presence of chemical substance/The level of expressed mRNA in the absence of chemical substance: 1.5
Yeast gene YDL174C, cultured for two hours with substance
  The level of expressed mRNA in the presence of chemical substance/The level of expressed mRNA in the absence of chemical substance: 2.8
Yeast gene YDL204W, cultured two hours with substance
  The level of expressed mRNA in the presence of chemical substance/The level of expressed mRNA in the absence of chemical substance: 0.9
Yeast gene YDL222C, cultured two hours with substance
  The level of expressed mRNA in the presence of chemical substance/The level of expressed mRNA in the absence of chemical substance: 1.0
Yeast gene YDR003W, cultured two hours with substance
  The level of expressed mRNA in the presence of chemical substance/The level of expressed mRNA in the absence of chemical substance: 0.8
Yeast gene YDR009W
  The level of expressed mRNA in the presence of chemical substance/The level of expressed mRNA in the absence of chemical substance: 1.0
Yeast gene YDR019C
  The level of expressed mRNA in the presence of chemical substance/The level of expressed mRNA in the absence of chemical substance: 0.7
Yeast gene YDR031W, cultured two hours with substance
  The level of expressed mRNA in the presence of chemical substance/The level of expressed mRNA in the absence of chemical substance: 0.9
Yeast gene YDR070C, cultured two hours with substance
  The level of expressed mRNA in the presence of chemical substance/The level of expressed mRNA in the absence of chemical substance: 4.3
Yeast gene YDR330W, cultured two hours with substance
  The level of expressed mRNA in the presence of chemical substance/The level of expressed mRNA in the absence of chemical substance: 1.0
Yeast gene YDR391C, cultured two hours with substance
  The level of expressed mRNA in the presence of chemical substance/The level of expressed mRNA in the absence of chemical substance: 1.4
Yeast gene YDR406W (transport facilitation protein gene)
  The level of expressed mRNA in the presence of chemical substance/The level of expressed mRNA in the absence of chemical substance: 3.9
Yeast gene YDR410C
  The level of expressed mRNA in the presence of chemical substance/The level of expressed mRNA in the absence of chemical substance: 0.9
Yeast gene YDR411C, cultured two hours with substance
  The level of expressed mRNA in the presence of chemical substance/The level of expressed mRNA in the absence of chemical substance: 1.5
Yeast gene YDR476C, cultured two hours with substance
  The level of expressed mRNA in the presence of chemical substance/The level of expressed mRNA in the absence of chemical substance: 2.1
Yeast gene YDR486C, cultured two hours with substance
  The level of expressed mRNA in the presence of chemical substance/The level of expressed mRNA in the absence of chemical substance: 1.3
Yeast gene YDR497C, metabolism protein genes
  The level of expressed mRNA in the presence of chemical substance/The level of expressed mRNA in the absence of chemical substance: 0.9
Yeast gene YDR511W, cultured two hours with substance
  The level of expressed mRNA in the presence of chemical substance/The level of expressed mRNA in the absence of chemical substance: 0.8
Yeast gene YDR534C, cultured two hours with substance
  The level of expressed mRNA in the presence of chemical substance/The level of expressed mRNA in the absence of chemical substance: 1.5
Yeast gene YDR545W, cultured two hours with substance
  The level of expressed mRNA in the presence of chemical substance/The level of expressed mRNA in the absence of chemical substance: 0.9
Yeast gene YEL001C, cultured two hours with substance
  The level of expressed mRNA in the presence of chemical substance/The level of expressed mRNA in the absence of chemical substance: 1.1
Yeast gene YER004W, cultured two hours with substance
  The level of expressed mRNA in the presence of chemical substance/The level of expressed mRNA in the absence of chemical substance: 1.7
Yeast gene YER026C
  The level of expressed mRNA in the presence of chemical substance/The level of expressed mRNA in the absence of chemical substance: 1.7
Yeast gene YER035W, cultured two hours with substance
  The level of expressed mRNA in the presence of chemical substance/The level of expressed mRNA in the absence of chemical substance: 1.1
Yeast gene YER038C, cultured two hours with substance
  The level of expressed mRNA in the presence of chemical substance/The level of expressed mRNA in the absence of chemical substance: 0.9
Yeast gene YER079W, cultured two hours with substance
  The level of expressed mRNA in the presence of chemical substance/The level of expressed mRNA in the absence of chemical substance: 0.9
Yeast gene YER096W, metabolism protein genes
  The level of expressed mRNA in the presence of chemical substance/The level of expressed mRNA in the absence of chemical substance: 0.9
Yeast gene YER106W, cultured two hours with substance
  The level of expressed mRNA in the presence of chemical substance/The level of expressed mRNA in the absence of chemical substance: 0.9
Yeast gene YER158C, cultured two hours with substance
  The level of expressed mRNA in the presence of chemical substance/The level of expressed mRNA in the absence of chemical substance: 1.0
Yeast gene YER163C, cultured two hours with substance
  The level of expressed mRNA in the presence of chemical substance/The level of expressed mRNA in the absence of chemical substance: 1.0
Yeast gene YER175C, cultured two hours with substance
  The level of expressed mRNA in the presence of chemical substance/The level of expressed mRNA in the absence of chemical substance: 0.9
Yeast gene YFL006W, cultured two hours with substance
  The level of expressed mRNA in the presence of chemical substance/The level of expressed mRNA in the absence of chemical substance: 1.2
Yeast gene YFL010C, cultured two hours with substance
  The level of expressed mRNA in the presence of chemical substance/The level of expressed mRNA in the absence of chemical substance: 1.5
